Measured values as given in patent US8273543B2, “Regulation of BACE degradation” (The General Hospital Corporation, priority 2006, dated 2012).
Entries after “also recorded” stand apart in the source; their conditions may differ. Peptide text beside a SMILES is read from it. * marks the point of attachment. Cbz = O=C(OCc1ccccc1)*; CH2F = FC*

Experiments:
[1] = tested on: BACE; settings: variety of cell types, including primary neurons; cited from earlier work
[2] = tested on: caspase 3; test: Caspase 3 activation, Western blot with anti-caspase 3 active fragment antibody; format: cell-based, human; settings: H4-APP751 cells, STS treatment
Text: (§1) Gervais and colleagues (Gervais et al., 1999) proposed that caspase-mediated cleavage of APP at APPD720 was responsible for increased Aβ generation associated with apoptosis. […] The Aβ ELISA measured Aβ1-total using biotinylated 3D6, which specifically recognizes the aspartate in position 1 of Aβ, as a reporter antibody. […] Here, we investigated whether apoptosis-mediated increases in Aβ levels may be due to enhanced cleavage of APP by BACE, the protease responsible for β-secretase cleavage of APP (Vassar et al., 1999). For this purpose, we tested whether apoptosis/caspase activation leads to increased levels of APP-C99, the C-terminal fragment generated by β-secretase cleavage of APP. […]
(§2) H4 human neuroglioma cells expressing APP751 (H4-APP751) and APP-SWE (H4-APPSWE) were grown in DMEM containing 10% FBS, 200 μg/mL G418, 250 μg/mL zeocin, 2 mM L-glutamine, 100 U/ml penicillin, 100 μg/mL streptomycin. […] Densitometry analysis was performed on a Macintosh computer using the public domain NIH Image program (developed at the U.S. National Institutes of Health and available on the Internet at rsb.info.nih.gov/nih-image/) or using a Versadoc Imager and QuantityOne software (BioRad).

[3] = tested on: BACE; test: Cycloheximide degradation time-course, BACE; format: cell-based, human; settings: H4-APP751 cells, STS+CHX vs CHX (40 μg/ml) only
Protocol: (§3) H4-APP751 cells were treated with CHX (40 μg/ml) only or STS (1 μM)+CHX during a 30 hr time-course. Lysates from each time point were immunoblotted with the specific antibodies, anti-BACE, anti-TACE, and the anti-APP antibody […].

[4] = tested on: GGA3; test: Full length GGA3 in primary cortical neurons treated with STS, Western blot; format: cell-based; settings: primary cortical neurons (PCN), STS for 12 hr
Protocol: FIG. 5b: rat brain samples from the experiment described in FIG. 7. […] FIG. 5c: H4 and primary cortical neurons (PCN) were treated with STS for 12 hr.

[5] = tested on: Aβ1-total; settings: CHO cells, 6 hr treatment; cited from earlier work
[6] = tested on: GGA3; test: GGA3 cleavage during apoptosis in H4 cells, Western blot with anti-GGA3 antibody; format: cell-based, human; settings: for cleavage of full length GGA3: H4 cells, STS time course
Protocol: H4 cells were treated with staurosporine (STS) during time course experiments.
(§4) H4 human neuroglioma cells expressing APP751 (H4-APP751) and APP-SWE (H4-APPSWE) were grown in DMEM containing 10% FBS, 200 μg/mL G418, 250 μg/mL zeocin, 2 mM L-glutamine, 100 U/ml penicillin, 100 μg/mL streptomycin. For the induction of apoptosis, we used staurosporine or etoposide (Calbiochem). For time-course experiments, cells were seeded at a density of 2×10^6 cells per 100 mm dish and treated with STS (1 μM) or etoposide (100 μg/mL). In order to inhibit caspase activation a sister plate of cells was pretreated with zVAD (100 μM, Calbiochem) for 1 hr before STS treatment. At different time points (0, 3, 6, 9, 12, and 24 hr), the cells were scraped, centrifuged, and then lysed in buffer containing 1% NP40. Western blot analysis was performed as previously described (Tesco et al., 2003). Densitometry analysis was performed on a Macintosh computer using the public domain NIH Image program (developed at the U.S. National Institutes of Health and available on the Internet at rsb.info.nih.gov/nih-image/) or using a Versadoc Imager and QuantityOne software (BioRad).

[7] = tested on: BACE; test: Induction of apoptosis, Western blot of BACE protein levels; format: cell-based, human; settings: H4-APP751 cells
Protocol: as §4

[8] = tested on: TACE and APP; test: Cycloheximide degradation time-course, TACE and APP; format: cell-based, human; settings: H4-APP751 cells, STS+CHX vs CHX (40 μg/ml) only
Protocol: as §3

[9] = tested on: APP-C99; test: APP-C99 levels during apoptosis, Western blot with WO2 antibody; format: cell-based, human; settings: H4-APP751 cells, apoptosis induced by STS
Text: as §1, §2

[10] = tested on: BACE mRNA; test: Northern blot analysis of BACE mRNA; format: cell-based, human; settings: H4-APP751 cells, 6 hr of STS treatment
Protocol: Total RNA was extracted using TRIZOL (Invitrogen). Northern blot analysis was performed as previously described (Koh et al., 2001). Human cDNA of BACE was labeled with […] (PerkinElmer, Norwalk Conn.) using random hexanucleotide primers (Prime-a-gene labeling system; Promega Madison Wis.).

[11] = tested on: ischemic and excitotoxic neuronal damage; settings: intracerebroventricular injection before ischemia and immediately after reperfusion; cited from earlier work
[12] = tested on: BACE; settings: caspase inhibition; cited from earlier work
[13] = tested on: GGA3; test: In vitro translation and recombinant caspase 3 cleavage assay; format: biochemical, human; settings: recombinant caspase 3
Protocol: The HA-GGA3 pcDNA4 plasmid was a generous gift from Dr. Waguri. GGA3 was in vitro translated (IVT) in the presence of [^35S]-labeled methionine using TNT Quick Coupled Transcription/Translation Systems as indicated by the manufacturer (Promega, Madison Wis.). 5 μL of IVT reaction were incubated with or without 200 ng of recombinant caspase 3 (Pharmingen, San Diego, Calif.) in caspase reaction buffer (sucrose 20%, NaCl 100 mM, HEPES (pH 7.4) 20 mM, CHAPS 0.1%, DTT 10 mM, EDTA 1 mM) at 37° for 2 hr. The reactions were separated by SDS-page (4-12% Bis-tricine gel with MES running buffer, Invitrogen Carlsbad, Calif.). The gel was fixed, dried and exposed to a phosphorimager screen. The images were acquired with a FX phosphorimager (Bio-Rad, Hercules Calif.). GGA3 in vitro translation was also performed in the presence of cold methionine. Then, 5 μL of IVT reaction were incubated with or without 200 ng of recombinant caspase 3 overnight at 37°. The reactions were separated by SDS-page. In order to better separate the bands generated by caspase 3 cleavage we used 12% Bis-tricine gel and MOPS running buffer (Invitrogen). Then, the proteins were transferred to PVDF membrane and WB analysis with anti-GGA3 antibody was performed.

[14] = tested on: BACE; test: Co-transfection of GGA3DN with myc-tagged BACE in H4-APP751 cells, BACE levels; format: cell-based, human
Text: To address this possibility we engineered a HA-tagged GGA3 N-terminal fragment 1-313 mimicking the N-terminal caspase-derived fragment generated by cleavage at D313 (GGA3DN). […] During apoptosis, however, caspase-mediated cleavage of GGA3 results not only in the production of GGA3DN but also the degradation of GGA3.

[15] = tested on: Aβ40; test: Secreted Aβ40 in conditioned media, sandwich ELISA; format: cell-based, human; settings: H4-APP751 cells expressing GGA3DN
Protocol: Secreted Aβ40 was measured in the conditioned media using an Aβ40-specific sandwich ELISA (BioSource International, Camarillo, Calif.). Aβ concentration was normalized against the concentration of protein in the cell lysates.
H4 cells stably expressing wild-type APP-751 or APP containing the Swedish FAD mutation (APPSwe) were transfected with 200 nM siGGA3 (ID #36847, Ambion, Austin Tex.) or a 19 bp scrambled sequence was used as negative control for siRNA (Silencer Negative control #1 siRNA, Ambion) using oligofectamine following manufacturer's instructions (Invitrogen). 72 hr later, GGA3 levels were determined by WB analysis with anti-GGA3 antibody (Transduction Laboratories). At the same time point, a sister plate of the same cells was co-transfected with myc-tagged BACE plasmid and siGGA3 or siNeg. After 48 hr the media was replaced. Cells and media were collected after 72 hr following the co-transfection.

Cl.N [NH4Cl]
accumulation of endogenous and ectopically expressed BACE [1]: lead to accumulation

CN[C@@H]1C[C@H]2O[C@@](C)([C@@H]1OC)n1c3ccccc3c3c4c(c5c6ccccc6n2c5c31)C(=O)NC4 [STS, staurosporine]
earliest time of caspase 3 activation [2]: 6 h
degradation of BACE [3]: degradation of BACE was decreased
full length GGA3 [4]: decrease in full length GGA3
Aβ1-total production compared to untreated cells [5]: significantly increased
cleavage of full length GGA3 [6]: cleaved into two major fragments
cleavage of full length GGA3 ([6]; listed as staurosporine): cleaved in two major fragments
increase in BACE protein levels ([7]; 12 hr of STS treatment): ~6 fold
increase in BACE protein levels ([7]; 24 hr of STS treatment): ~9 fold
degradation of TACE and APP [8]: unchanged
levels of APP-C99 [9]: increased levels of C99
BACE mRNA levels [10]: virtually undetectable

CCN(CC)CCCC(C)Nc1ccnc2cc(Cl)ccc12 (centres unmarked) [chloroquine]
accumulation of endogenous and ectopically expressed BACE [1]: lead to accumulation

COc1cc([C@@H]2c3cc4c(cc3[C@@H](O[C@@H]3O[C@@H]5CO[C@@H](C)O[C@H]5[C@H](O)[C@H]3O)[C@H]3COC(=O)[C@H]23)OCO4)cc(OC)c1O [etoposide]
BACE protein levels ([7]; apoptosis induced by etoposide): increased BACE protein levels

COC(=O)C[C@H](NC(=O)[C@H](C)NC(=O)[C@@H](NC(=O)OCc1ccccc1)C(C)C)C(=O)CF [z-VAD.FMK] (Cbz-Val-Ala-Asp(OMe)-CH2F)
ischemic and excitotoxic neuronal damage [11]: significantly reduces

COC(=O)CC[C@H](NC(=O)[C@H](CC(=O)OC)NC(=O)OCc1ccccc1)C(=O)N[C@H](C(=O)N[C@@H](CC(=O)OC)C(=O)CF)C(C)C [zDEVD.FMK]
ischemic and excitotoxic neuronal damage [11]: significantly reduces

CC(NC(=O)C(NC(=O)OCc1ccccc1)C(C)C)C(=O)NC(CC(=O)O)C(=O)CF (stereo not drawn) [zVAD] (Cbz-Val-Ala-Asp-CH2F; configuration not given here)
cleavage of GGA3 during apoptosis ([6]; apoptotic H4 cells, caspase inhibition): inhibited; also recorded: prevented
BACE accumulation during STS or etoposide treatment ([7]; caspase inhibition): prevented BACE accumulation
increase in Aβ production during apoptosis [12]: prevent
stabilization of BACE during apoptosis [12]: prevent the stabilization of BACE

B1: recombinant caspase 3: Recombinant caspase 3 purchased from Pharmingen (protein)
chain: SGISLDNSYKMDYPEMGLCIIINNKNFHKSTGMTSRSGTDVDAANLRETFRNLKYEVRNKNDLTREEIVELMRDVSKEDHSKRSSFVCVLLSHGEEGIIFGTNGPVDLKKITNFFRGDRCRSLTGKPKLFIIQACRGTELDCGIETDSGVDDDMACHKIPVEADFLYAYSTAPGYYSWRNSKDGSWFIQSLCAMLKQYADKLEFMHILTRVNRKVATEFESFSFDATFHAKKQIPCIVSMLTKELYFYH
cleavage of in vitro translated GGA3 (cold methionine), Western blot [13]: three major fragments

B2: GGA3DN: HA-tagged GGA3 N-terminal fragment 1-313 mimicking the N-terminal caspase-derived fragment generated by cleavage at D313 (protein, UniProt Q9NZ52 1-313, looked up, fragment)
chain: MAEAEGESLESWLNKATNPSNRQEDWEYIIGFCDQINKELEGPQIAVRLLAHKIQSPQEWEALQALTVLEACMKNCGRRFHNEVGKFRFLNELIKVVSPKYLGDRVSEKVKTKVIELLYSWTMALPEEAKIKDAYHMLKRQGIVQSDPPIPVDRTLIPSPPPRPKNPVFDDEEKSKLLAKLLKSKNPDDLQEANKLIKSMVKEDEARIQKVTKRLHTLEEVNNNVRLLSEMLLHYSQEDSSDGDRELMKELFDQCENKRRTLFKLASETEDNDNSLGDILQASDNLSRVINSYKTIIEGQVINGEVATLTLPD
modifications: HA tag
notes: HA-tagged GGA3 N-terminal fragment 1-313 mimicking the N-terminal caspase-derived fragment generated by cleavage at D313
BACE levels compared to vector alone or GGA3 [14]: BACE levels were increased
levels of secreted Aβ40 [15]: the increase was not statistically significant
